From paper PMC7582705, “Structure-Based Discovery of Novel Chemical Classes of Autotaxin Inhibitors” (International Journal of Molecular Sciences, 2020)
Read-outs that look alike come from different tables or passages of the source.

Experiments:
ATX [1] = molecular target: T1, ATX (Homo sapiens, UniProt Q13822); settings: LPC assay; cited from earlier work
ATX [2] = molecular target: T1, ATX; assay: IC50 Eleanna (Table S2, method not described); type: biochemical
mouse ATX [3] = molecular target: T2, mouse ATX (Mus musculus, UniProt Q9R1E6); assay: Amplex Red Lyso-phospholipase D assay, mouse ATX; type: biochemical
T2 construct: purchased Sino Biological
Experimental: All compounds proposed were assessed for their ATX inhibitory activity in vitro using the Amplex Red assay. The Amplex Red Lyso-phospholipase D assay is a fluorometry-based assay providing a sensitive method for measuring Lyso-phospholipase D (ATX) activity in vitro. In this enzyme-coupled assay, ATX activity is monitored indirectly using 10-acetyl-3,7-dihydrophenoxazine (Amplex Red reagent), a sensitive fluorogenic probe for H2O2. ATX initially cleaves the Lysophosphatidylcholine (LPC) substrate to yield choline and Lysophosphatidic acid (LPA), while choline gets subsequently oxidized by choline oxidase to betaine and H2O2. Lastly, H2O2, in the presence of horseradish peroxidase (HRP), reacts with Amplex Red reagent in a 1:1 stoichiometry to generate the highly fluorescent product resorufin.
The inhibition assay was performed as previously described with some modifications in order to accommodate the newly-discovered lag phase in ATX kinetics. To this end, and in order to provide adequate time to the hydrolysis of LPC by ATX, we added a 30min incubation period between ATX, inhibitors and LPC. Briefly, 2 μL of different concentrations of inhibitors diluted in DMSO (Sigma-Aldrich, St. Louis, MO, USA) were incubated with 50 µL of ATX 8 nM (human or mouse ATX from Sino Biological), and 48 µL reaction buffer (50 mM Tris-Cl pH 8.0 from Thermo Fisher Scientific, Waltham, MA, USA and 5 mM CaCl2 from Honeywell-Fluka, Charlotte, NC, USA) in a black 96-well microplate for 15 min at 37 °C. Thence, another 50 µL of reaction buffer with 200 μM LPC substrate 16:0 (Avanti Polar Lipids Inc, Alabaster, AL, USA) (final concentrations of LPC and ATX are 50 µM and 2 nM, respectively) was added to the reaction mixture and incubated for 30 min at 37 °C in order for ATX to convert LPC to LPA and choline. Finally, 50 µL of working solution containing 200 μM Amplex Red (Invitrogen, Carlsbad, CA, USA), 4 U/mL HRP (Sigma-Aldrich, St. Louis, MO, USA), 0.4 U/mL choline oxidase (Sigma-Aldrich, St. Louis, MO, USA) in 50 mM Tris-HCl pH 8.0 and 5 mM CaCl2 was added to measure the produced choline. The reaction was monitored at 37 °C in a fluorescence plate reader using excitation at 530 nm and reading at 590 nm, every 5 min for 30 min. The velocity of the reaction and the remaining activity of ATX were calculated at the linear phase of the reaction and dose-response inhibition graphs were plotted with GraphPad Software (GraphPad Software, San Diego, CA, USA). […] In order to evaluate a possible effect of the compounds on the second (choline oxidase) and third (HRP) enzymes of the Amplex Red assay, we also performed the assay in the absence of ATX but in the presence of the compounds. Instead of ATX, we added choline chloride at a final concentration of 2 µM so as the second and third steps of the assay could proceed normally.

ATX [4] = molecular target: T1, ATX; assay: Amplex Red Lyso-phospholipase D assay, human ATX; type: biochemical; set-up: purchased Sino Biological; settings: for inhibition at 30 µM: read-out: %inhibition at 30uM
mouse ATX [5] = molecular target: T2, mouse ATX; assay: Mode of inhibition, modified Amplex assay, Lineweaver-Burk plots; type: biochemical; settings: various LPC and inhibitor concentrations
Experimental: Lastly, to get insight into the mode of inhibition of the new ATX inhibitors developed in the present study, the Lineweaver–Burk plots were performed.
To determine the mode of inhibition of ATX by each inhibitor, a modified Amplex assay was employed. […] Mouse ATX from Sino Biological was used in all mode of inhibition assays. Thereafter, the velocity (V) of the reaction was calculated and the reciprocal of velocity (1/V) was plotted against the reciprocal of substrate concentration (1/S) in Lineweaver–Burk graphs using GraphPad Software (GraphPad Software, San Diego, CA, USA).

Solubility (Table S1) = settings: YES/NO
phosphodiesterase (PDE) = assay: Phosphodiesterase (PDE) colorimetric assay, 3',5'-cAMP and 3',5'-cGMP as substrates; type: biochemical
Description: This colorimetric assay kit uses 3′,5′-cAMP and 3′,5′-cGMP as substrates, and it is useful for the screening of inhibitors of nucleotide phosphodiesterase activity.

ATX [6] = molecular target: T1, ATX; settings: cited from earlier work
[7] = Table S2, read-out: IC50 Eleanna
[8] = recombinant mouse ATX 2 nM, LPC 16:0 substrate, Amplex Red, read-out: IC50 mATX
[9] = recombinant human ATX 2 nM, LPC 16:0 substrate, Amplex Red, read-out: IC50 hATX

| SMILES | IC50 (ATX [2]; [7]) | IC50 (mouse ATX [3]; [8]) | inhibition at 30 µM (ATX [4]; Table S2, at 30uM) | IC50 (ATX [4]; [9]) | Mode of Inhibition (mouse ATX [5]) | further results |
| --- | --- | --- | --- | --- | --- | --- |
| CCCCCCCCCCCCCC(=O)Nc1ccc(CP(=O)(O)O)cc1 [Compound S32826] |  |  |  |  |  | IC50 (ATX [1]): 0.0056 µM |
| CCOC(=O)c1sc(SCc2ccccc2)c2c1CC(c1ccc(C)cc1)CC2O (stereo not drawn) [KM03601, ethyl 3-benzylsulfanyl-4-hydroxy-6-(4-methylphenyl)-4,5,6,7-tetrahydro-2-benzothiophene-1-carboxylate] | 0.5 µM | 14.9 µM | 43.6% | 30.5 µM | competitive | IC50 (mouse ATX [3]; in vitro IC50 (mATX 2nM), Table S2, mATX 2nM): 15 µM; IC50 (ATX [4]; in vitro IC50 (Sino hATX 2nM), Table S2, Sino hATX 2nM): 30.6 µM; IC50 (ATX [4]; in vitro IC50 (hATX 1nM), Table S2, hATX 1nM): 10 µM; Solubility (Solubility (Table S1)): YES |
| CCOC(=O)c1c(CN2CCCCC2)n(Cc2ccccc2)c2cc(Br)c(O)cc12 [KM-14, ethyl 1-benzyl-6-bromo-5-hydroxy-2-(piperidin-1-ylmethyl)-1H-indole-3-carboxylate] |  |  |  |  | mixed | IC50 (ATX [2]): 0.8 µM; IC50 (mouse ATX [3]): 5.9 µM; IC50 (ATX [4]): 13.8 µM; inhibition at 30 µM (ATX [4]): 69% |
| CCOC(=O)C1CCN(C(=O)Cc2c(Sc3ccc(Cl)cc3)[nH]c3ccccc23)CC1 [KM-24, ethyl 1-[2-[2-(4-chlorophenyl)sulfanyl-1H-indol-3-yl]acetyl]piperidine-4-carboxylate] | 0.5 µM | 6.5 µM | 69.8% | 14.6 µM | mixed |  |
| COc1cccc(NC(=S)N2CCn3cccc3C2c2ccc(OC)c(OC)c2)c1 (stereo not drawn) [KM-26, 1-(3,4-dimethoxyphenyl)-N-(3-methoxyphenyl)-3,4-dihydro-1H-pyrrolo[1,2-a]pyrazine-2-carbothioamide] | 0.8 µM | 7.4 µM | 83.3% | 5.6 µM | competitive | IC50 (phosphodiesterase (PDE)): 2.8 µM; activity against PDE (phosphodiesterase (PDE); in words): outstanding activity |
| N[C@@H](Cc1c[nH]cn1)C(=O)O [L-Histidine] |  |  |  |  |  | IC50 (ATX inhibition) (ATX [6]): millimolar range |
| O=C(CCN1CCN(C(=O)OCc2cc(Cl)cc(Cl)c2)CC1)c1ccc2[nH]c(=O)oc2c1 [PF-8380, 3,5-Dichlorobenzyl 4-(3-oxo-3-(2-oxo-2,3-dihydrobenzo[d]oxazol-6-yl)propyl)piperazine-1-carboxylate, reference compound] |  |  |  |  | competitive | IC50 (phosphodiesterase (PDE)): 0.0011 µM; Solubility (Solubility (Table S1)): YES |
| Cc1[nH]c2ccccc2c1C1=CCN(S(=O)(=O)c2cccc3nsnc23)CC1 [SC-41, 4-{[4-(2-Methyl-1H-indol-3-yl)-3,6-dihydropyridin-1(2H)-yl]sulfonyl}-2,1,3-benzothiadiazole] | 2.3 µM | 4 µM | 70.6% | 13.6 µM | uncompetitive |  |
